Columns and labels:
[1] = tested on: blood brain barrier (rat brain); assay: Evans Blue accumulation in rat brain after alternating electric fields; assay type: in vivo, rats
Text: A set of in vivo experiments on rats was also run to quantify the increase in vessel permeability caused by exposure to the alternating electric fields. These experiments used Evans Blue (EB) dye, which is an azo dye that has a very high affinity for serum albumin (molecule size ˜69 kDa). Because of its large molecule size, serum albumin will ordinarily not be able to get past the BBB.
This was accomplished by shaving each rat's head, positioning a first pair of capacitively coupled electrodes on the top and bottom of the rat's head, and positioning a second pair of capacitively coupled electrodes on the left and right sides of the rat's head. A 100 kHz AC voltage was then applied between the top and bottom electrodes for 1 second, followed by a 100 kHz AC voltage applied between the right and left electrodes for 1 second, in a repeating sequence.
Under the conditions indicated in Table 1 and for the times indicated on Table 1, EB was injected intravenously into the tail vein under anesthesia (Once injected, EB immediately binds to Albumin), and the EB was allowed to circulate for 2 hours in all cases. The following steps were then performed: (a) intracardiac perfusion with saline; (b) brains are sliced in four pieces with a brain slicer; (c) pieces were photographed to localize staining and weighted; (d) EB extraction after tissue homogenization with TCA 50% (1:3) and centrifuge and (e) EB quantification at 610 nm. Results are given as μg EB per g tissue.
During the experiment, two animals from group 2 and one animal from group 4 were excluded (disrupted treatment, failure to inject EB into the tail vein). There were no differences between the animals treated with alternating electric fields (groups 1 and 2) and therefore these animals were grouped together. Similarly, there were no differences between sham heat and control animals (groups 3 and 4) and therefore these animals were grouped together.
EB accumulation in these four specific sections was then measured. In addition, a computer simulation was performed to determine the field strength in each of these four sections. […]

[2] = tested on: blood brain barrier (rat brain); assay: DCE-MRI contrast agent accumulation in rat brain; assay type: in vivo, rats
Experimental: Yet another set of in vivo experiments was performed using Dynamic Contrast Enhanced MRI (DCE-MRI) with intravenous injection of Gadolinium contrast agent (Gd-DTPA, Magnetol, MW 547). In these experiments, test rats were treated with 100 kHz alternating electric fields for 72 h, and control rats were not treated with alternating electric fields for the same period of time. After this 72 h period, the alternating electric field was turned off, the rats were anesthetized, and a series of 60 T1w MRI scans (each of the scans having a duration of 28 seconds) was acquired. The gadolinium contrast agent was injected into the rat's tail vein during the 7th of these 60 scans.
The image analysis for each rat included (1) determining a baseline for each voxel by calculating the mean of the first six T1w MRI scans for each voxel (i.e., the scans prior to the injection of the gadolinium); (2) computing voxel by voxel, the percent signal change (i.e., gadolinium accumulation) over time relative to the baseline; (3) segmenting the brain into anterior, middle, and posterior segments; (4) generating for each of the three segments the mean percent signal change with respect to the baseline over all the voxels in the respective segment and then (5) averaging 4 consecutive time points (i.e. 4 scans) together. Finally, the data from all of the rats within any given group were averaged together. […]

Cc1cc(-c2ccc(/N=N/c3ccc4c(S(=O)(=O)O)cc(S(=O)(=O)O)c(N)c4c3O)c(C)c2)ccc1/N=N/c1ccc2c(S(=O)(=O)O)cc(S(=O)(=O)O)c(N)c2c1O [EB, Evans Blue]
average EB accumulation in the rat brain, averaged over all four sections 1-4 ([1]; 100 kHz fields 72 hours vs sham heat/control, p<0.05): higher accumulation
EB accumulation, sections 1, 2 (frontal cerebrum) ([1]; 100 kHz fields 72 h vs sham heat/control, EB i.v., circulated 2 hours, sections where field strength was highest): statistically significant increase
EB accumulation, more posterior sections (3, 4) ([1]; 100 kHz fields 72 h vs sham heat/control, EB i.v., circulated 2 hours, sections where field strength was lower): smaller increase (that was not statistically significant)

O=C([O-])CN(CCN(CC(=O)[O-])CC(=O)O)CCN(CC(=O)[O-])CC(=O)O.[Gd+3] [contrast agent, Gd-DTPA]
contrast agent accumulation in the brain tissue (DCE-MRI percent signal change) ([2]; 100 kHz fields 72 h (n=6) vs control rats (n=3), most pronounced in posterior brain): significantly higher
contrast agent accumulation in the brain tissue (DCE-MRI percent signal change) ([2]; 100 kHz fields 72 hours followed by 96 hours without fields (n=7) vs control+96h (n=3)): not significantly different

— patent US12290654B2, “Using alternating electric fields to increase permeability of the blood brain barrier” (Novocure GmbH, priority 2018, dated 2025)
